Like-named read-outs stand apart in the source and are kept apart here.
Tests used:
PDE4D = molecular target: T1, PDE4D (Homo sapiens, UniProt Q08499); assay: PDE4 IC50 determination by Scintillation Proximity Assay, PDE4D; format: biochemical
T1 construct: PDE4D: The catalytic domain of human PDE4B from S3 16-V692; His6 (N); thrombin cleavage site (N); made in house; host or cells: E. coli
Method in brief: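 Enzyme was added to compound and [^3H]cAMP, then incubated 30 min at 30° (PDE4B 80 ng/ml; PDE4D 4 ng/ml). Product [^3H]AMP bound to SPA beads and was counted. IC50 was fitted by non-linear regression against DMSO and roflumilast controls.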

[1] = test system: TNF alpha production in LPS-stimulated human blood (Buffy coat); assay: TNF alpha production by stimulation with LPS in whole blood cultures; format: cell-based
Experimental: Compounds were assayed to generate IC50 numbers as described in Example 54, using the following assay protocol (see Tables 3B and 4B for compounds and results).
Protocol • 1) Obtained 20 mM DMSO aliquots of desired concentrations of compounds (see Tables 3B and 4B for compounds tested and results). Placed 2 μl/well compound in DMSO in the top row of the dilution plate. Added 98 μl of RPMI 1640 media w/2.5% heat inactivated FBS.
2) Made the same media with 2% DMSO in it. Added 60 μl/well to well to make compound titration. Took 30 μl of top row and did a 1:3 dilution down the plate. In column 11 added 4 wells of 50 μM roflumilast and piclamilast. In column 12 added 2% DMSO media.
3) Transfered 20 μl/well into assay plates in duplicate.
4) Obtained human Buffy coat.
5) Diluted blood with 7 volumes of RPMI 1640 media with 1% P/S and 2.5% heat inactivated FBS (a 1:8 dilution)
6) Added160 μl/well of diluted blood to the assay plates.
7) Incubated for 1 hour at 37 degrees 5% CO2
8) Diluted LPS (which was already diluted to 1 mg/ml in PBS, 20 μl aliquots frozen −20 C.) to 10× desired final concentration to make a […] dilution (final concentration should be 100 ng/ml).
9) After 1 hour incubation added 20 μl/well of LPS to plates. A non-LPS treated background was also prepared. Samples were put on the shaker for a one minute 900 rpm.
10) Incubated for 4 hours in incubator.
11) After incubation, put on the shaker for a one minute 900 rpm and spun plate at 100 g for 10 minutes, Decel 5.
12) Carefully pipetted the top 75 μl supernatant into a new plate. Samples were frozen as needed.
Biosource hu-TNF ALPHA ELISA
• REAGENTS USED • DPBS 10×: VWR45000-428 (dilute 1:10 with Millipore Water) • TWEEN 20: FISHER BP337-500 • CAPTURE AND DETECTION ANTIBODIES: R&D DY510E • STREP-HRP: Biosource part SNN4004X • COLOR REAGENTS: R&D DY994 • STOP SOLUTION: from chemistry, or R&D DY999 • 1) Thawed samples to RT as needed. • 2) Added 50 μl Incubation buffer/well. • 3) Added 50 μl blood samples +50 μl Diluent buffer • 4) Incubated 2 hours at room temp. • 5) Washed the plate 4× with 300 μl/well wash buffer with microfill. Wash buffer was DPBS with 0.05% Tween pH 7.2-7.4 • 6) Added 100 μl biotinylated anti-TNFalpha • 7) Incubateed 1 hours at room temp. • 8) Washed the plate 4× with 300 μl/well wash buffer with microfill. Wash buffer was DPBS with 0.05% Tween pH 7.2-7.4 • 9) Added^100 μl Streptavidin-HRP working solution • 10) Incubated for 30 minutes at room temp. • 11) Washed the plate 4× with 300 μl/well wash buffer with microfill. Wash buffer was DPBS with 0.05% Tween pH 7.2-7.4 • 12) Added 100 μl Chromagen • 13) Incubated in the dark for 30 minutes until the blue color developed satisfactorily. • 14) Added 100 μl/well stop solution (2 N H2SO4). • 15) Read plate on WallacVictor at 450 nm for 0.1 sec/well

[2] = Table 1B, Formula I compounds, read-out: IC50 PDE4D
[3] = Homo sapiens, Table 1B, Formula I compounds, read-out: IC50 h TNFα
[4] = human whole blood, LPS 100 ng/ml, read-out: IC 50 vs. indicated assay h TNFα
[5] = second part of Table 2B (2-23 to 2-103), column 5, column is PDE4D in first part, read-out: IC 50 vs. indicated assay h TNFα

T1 sequence (Q08499 380-756): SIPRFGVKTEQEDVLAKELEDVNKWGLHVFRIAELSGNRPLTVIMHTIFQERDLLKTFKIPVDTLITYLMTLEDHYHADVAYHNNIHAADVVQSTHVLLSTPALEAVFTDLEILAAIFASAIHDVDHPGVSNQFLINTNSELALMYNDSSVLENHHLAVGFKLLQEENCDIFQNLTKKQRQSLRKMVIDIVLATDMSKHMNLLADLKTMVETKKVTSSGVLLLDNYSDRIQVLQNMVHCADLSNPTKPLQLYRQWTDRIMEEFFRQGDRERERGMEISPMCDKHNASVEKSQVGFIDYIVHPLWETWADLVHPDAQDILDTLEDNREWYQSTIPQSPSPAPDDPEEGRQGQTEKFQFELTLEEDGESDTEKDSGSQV

| Compound | IC50 (PDE4D; [2]) [µM] | IC50 [1, 3] [µM] | IC50 (PDE4D; first part of Table 2B (2-1 to 2-22), read-out: IC 50 vs. indicated assay PDE4D) [µM] | IC50 [1, 4] [µM] | IC50 (PDE4D; [5]) [µM] |
| --- | --- | --- | --- | --- | --- |
| N#Cc1c(Nc2ccccc2)sc(C(=O)C2CC2)c1N [Compound 1-28, 4-Amino-5-cyclopropanecarbonyl-2-phenylamino-thiophene-3-carbonitrile] | < 10 | < 10 |  |  |  |
| COc1ccc(C(=O)c2sc(Nc3ccccc3)c(C#N)c2N)cc1 [Compound 1-31] | < 10 | < 10 |  |  |  |
| CCOC(=O)c1c(NC2CCCC2)sc(C(=O)c2ccc(OC)cc2)c1N [Compound 1-191, 4-Amino-2-cyclopentylamino-5-(4-methoxy-benzoyl)-thiophene-3-carboxylic acid ethyl ester] | < 10 | > 10 |  |  |  |
| N#Cc1c(Nc2ccccc2)sc(C(=O)c2cc(-c3ccccc3)no2)c1N [Compound 1-192, 4-Amino-2-phenylamino-5-(3-phenyl-isoxazole-5-carbonyl)-thiophene-3-carbonitrile] | < 10 | < 10 |  |  |  |
| CC(C)Nc1sc(C(=O)c2cc(-c3ccccc3)no2)c(N)c1C#N [Compound 1-205, 4-Amino-2-isopropylamino-5-(3-phenyl-isoxazole-5-carbonyl)-thiophene-3-carbonitrile] | < 10 | > 10 |  |  |  |
| CC(C)Nc1sc(C(=O)c2cc(-c3ccc(Cl)cc3)no2)c(N)c1C#N [Compound 1-212, 4-Amino-5-[3-(4-chloro-phenyl)-isoxazole-5-carbonyl]-2-isopropylamino-thiophene-3-carbonitrile] | > 10 | > 10 |  |  |  |
| CC(C)CNc1sc(C(=O)c2cc(-c3ccccc3)no2)c(N)c1C(N)=O [Compound 1-236, 4-Amino-2-isobutylamino-5-(3-phenyl-isoxazole-5-carbonyl)-thiophene-3-carboxylic acid amide] | < 10 | > 10 |  |  |  |
| NC(=O)c1c(NC2CCCC2)sc(C(=O)c2cc(-c3ccccc3)no2)c1N [Compound 1-251, 4-Amino-2-cyclopentylamino-5-(3-phenyl-isoxazole-5-carbonyl)-thiophene-3-carboxylic acid amide] | < 10 | > 10 |  |  |  |
| Nc1nc(Nc2ccccc2F)sc1C(=O)c1cc(-c2ccccc2)no1 [Compound 2-6, [4-Amino-2-(2-fluoro-phenylamino)-thiazol-5-yl]-(3-phenyl-isoxazol-5-yl)-methanone] |  |  | < 10 | > 10 |  |
| Nc1nc(Nc2ccc(Cl)cc2)sc1C(=O)c1cccc(C(F)(F)F)c1 [Compound 2-23, [4-Amino-2-(4-chloro-phenylamino)-thiazol-5-yl]-(3-trifluoromethyl-phenyl)-methanone] |  |  |  | > 10 | < 10 |
| Nc1nc(NC2CCCC2)sc1C(=O)c1cccc(Cl)c1 [Compound 2-80, (4-Amino-2-cyclopentylamino-thiazol-5-yl)-(3-chloro-phenyl)-methanone] |  |  |  | < 10 | < 10 |

— US7585859B2, “PDE4B inhibitors and uses therefor” (Plexxikon, Inc., priority 2004, dated 2009)
